For orientation: IC50 means the midpoint of a concentration-inhibition curve. Low values mean greater potency in that assay, high ones weaker potency in that assay. As usually defined, the inhibition is the drop in the measured response relative to a control, in per cent.

From US20250302833A1, “PHARMACEUTICAL COMPOSITION FOR TREATING OR PREVENTING CYSTIC DISEASE” (CHUGAI SEIYAKU KABUSHIKI KAISHA, priority 2022, published 2025) come the findings set out here.

Common to all, as to assay type: cell-based
One assay concerns the target T1, human PiT1 (Homo sapiens, UniProt Q8WUM9).
T1 construct: expressed in transfected cells; host or cells: CHO cells, transient transfection with Fugene HD
T1 sequence (Q8WUM9 1-679): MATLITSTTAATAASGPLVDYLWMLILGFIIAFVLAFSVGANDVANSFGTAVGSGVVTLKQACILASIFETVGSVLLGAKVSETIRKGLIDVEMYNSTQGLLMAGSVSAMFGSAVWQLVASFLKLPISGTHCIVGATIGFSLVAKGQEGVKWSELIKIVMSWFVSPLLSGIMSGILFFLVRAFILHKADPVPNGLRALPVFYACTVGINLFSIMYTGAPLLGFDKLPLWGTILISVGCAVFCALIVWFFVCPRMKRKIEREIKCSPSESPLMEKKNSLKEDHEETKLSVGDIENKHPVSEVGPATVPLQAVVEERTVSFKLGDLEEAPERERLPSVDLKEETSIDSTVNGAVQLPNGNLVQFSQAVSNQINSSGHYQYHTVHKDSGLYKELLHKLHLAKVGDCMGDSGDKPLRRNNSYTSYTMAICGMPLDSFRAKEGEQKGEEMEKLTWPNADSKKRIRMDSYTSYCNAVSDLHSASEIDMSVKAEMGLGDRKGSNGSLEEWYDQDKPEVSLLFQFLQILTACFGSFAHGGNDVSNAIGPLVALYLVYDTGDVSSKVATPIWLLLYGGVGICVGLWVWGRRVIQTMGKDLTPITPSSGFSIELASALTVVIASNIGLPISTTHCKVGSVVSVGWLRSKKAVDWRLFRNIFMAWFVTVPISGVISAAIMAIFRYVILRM
Briefly: 33PO4 uptake inhibition in CHO cells expressing human PiT1. To be noted: CHO cells transiently expressing human PiT1, pH 6.5. Here is the method:
(§1) For transient expression, human NaPi-IIb expression plasmids, human PiT1 expression plasmids, human PiT2 expression plasmids, and Fugene HD Transfection (Promega Corporation) were added to CHO cells using a 96-well plate, and the plate was incubated in a C02 incubator for 16 hours. The medium was replaced with buffer A (145 mM choline chloride, 3 mM KCl, 1 mM CaCl2), 0.5 mM MgCl2, 5 mM glucose, 5 mM MES, (pH 6.5)), and then replaced with buffer B (145 mM NaCl, 3 mM KCl, 1 mM CaCl2, 0.5 mM MgCl2, 5 mM glucose, 5 mM MES (pH 6.5)) to which a test compound was added at the final concentration of 0.01, 0.03, 0.1, 0.3, 1, 3, 10, or 30 μM, buffer A to which DMSO was added, or buffer B to which DMSO was added. After a certain time, a 1/20 amount of buffer A containing ^33PO4 (PerkinElmer Japan G. K.) was added and reacted at room temperature. After washing with ice-cooled buffer A, a liquid scintillator (MicroScint™-20, item number 6013621, PerkinElmer Japan G.K.) was added, and the ^33PO4 uptake amount was measured with the top count (Top Count NXT, PerkinElmer Japan G.K.). The inhibition rate was determined by the following formula. Here, a certain time was set to 10 minutes. […]

Assay [1] deals with primary cells from kidney tissues of human ADPKD patients. Briefly: Inhibition of three-dimensional cyst formation using primary cells from kidney tissue of human ADPKD patient. The note with it: 168 h, test compound 30 μM, forskolin + ITS stimulation, 7 days 3D culture, average N=3, read-out: Inhibition rate (%) of cyst formation. Here is the method:
Primary cells were isolated from kidney tissues of human ADPKD patients. Under two-dimensions, the isolated cells were cultured for 2 days using DMEM/F-12 (Thermo Fisher Scientific, Inc.) supplemented with 10% FBS. Subsequently, three-dimensional culture was performed for 7 days using 3D Ready Atelocollagen (KOKEN CO., LTD.). During three-dimensional culture, 50 µM forskolin (Sigma-Aldrich Co. LLC) and ITS liquid media supplements (Sigma-Aldrich Co. LLC) were added as stimulating agents to some of the wells to form cysts, and a test compound was added at the final concentration of 30 μM. The test compound was also added to other wells at the final concentration of 30 μM. After 7 days of three-dimensional culture, it was fixed with 4% paraformaldehyde (Thermo Fisher Scientific, Inc.), and nucleic acid staining and cell membrane staining were performed with Hoechst 33342 (Thermo Fisher Scientific, Inc.) and CellLight Plasma Membrane-RFP, BacMam 2.0 (Thermo Fisher Scientific, Inc.). Three-dimensional imaging and volume analysis were performed using Operetta CLS and image analysis software Harmony (PerkinElmer Japan G.K.). The inhibition rate was determined by the following formula.

The next assay addresses T2, human NaPi-IIb (Homo sapiens, UniProt O95436).
T2 construct: expressed in transfected cells; host or cells: CHO cells, transient transfection with Fugene HD
T2 sequence (O95436 1-690): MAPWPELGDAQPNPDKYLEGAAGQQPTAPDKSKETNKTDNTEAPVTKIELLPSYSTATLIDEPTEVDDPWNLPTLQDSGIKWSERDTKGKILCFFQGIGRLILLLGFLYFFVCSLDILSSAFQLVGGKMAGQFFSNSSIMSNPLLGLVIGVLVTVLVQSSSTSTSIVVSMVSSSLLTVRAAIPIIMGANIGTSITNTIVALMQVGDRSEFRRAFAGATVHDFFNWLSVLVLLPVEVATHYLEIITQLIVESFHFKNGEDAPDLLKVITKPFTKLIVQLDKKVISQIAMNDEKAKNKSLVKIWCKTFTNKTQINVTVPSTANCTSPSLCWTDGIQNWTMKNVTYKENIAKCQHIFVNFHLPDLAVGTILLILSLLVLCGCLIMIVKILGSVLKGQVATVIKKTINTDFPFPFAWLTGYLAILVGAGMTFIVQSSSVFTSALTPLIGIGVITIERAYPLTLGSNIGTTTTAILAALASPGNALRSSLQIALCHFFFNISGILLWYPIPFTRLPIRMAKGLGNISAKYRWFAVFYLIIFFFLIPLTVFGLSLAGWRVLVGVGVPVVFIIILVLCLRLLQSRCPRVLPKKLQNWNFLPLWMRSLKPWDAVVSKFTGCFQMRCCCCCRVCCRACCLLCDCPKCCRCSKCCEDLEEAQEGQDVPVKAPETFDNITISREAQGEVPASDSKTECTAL
Briefly: 33PO4 uptake inhibition in CHO cells expressing human NaPi-IIb. To be noted: CHO cells transiently expressing human NaPi-IIb, pH 6.5. Here is the method: For transient expression, human NaPi-IIb expression plasmids, human PiT1 expression plasmids, human PiT2 expression plasmids, and Fugene HD Transfection (Promega Corporation) were added to CHO cells using a 96-well plate, and the plate was incubated in a C02 incubator for 16 hours. The medium was replaced with buffer A (145 mM choline chloride, 3 mM KCl, 1 mM CaCl2), 0.5 mM MgCl2, 5 mM glucose, 5 mM MES, (pH 6.5)), and then replaced with buffer B (145 mM NaCl, 3 mM KCl, 1 mM CaCl2, 0.5 mM MgCl2, 5 mM glucose, 5 mM MES (pH 6.5)) to which a test compound was added at the final concentration of 0.01, 0.03, 0.1, 0.3, 1, 3, 10, or 30 μM, buffer A to which DMSO was added, or buffer B to which DMSO was added. After a certain time, a 1/20 amount of buffer A containing ^33PO4 (PerkinElmer Japan G. K.) was added and reacted at room temperature. After washing with ice-cooled buffer A, a liquid scintillator (MicroScint™-20, item number 6013621, PerkinElmer Japan G.K.) was added, and the ^33PO4 uptake amount was measured with the top count (Top Count NXT, PerkinElmer Japan G.K.). The inhibition rate was determined by the following formula. Here, a certain time was set to 10 minutes. The phrase “a 1/20 amount of buffer A containing ^33PO4 (PerkinElmer Japan G.K.) was added” refers to “buffer A containing ^33PO4 (PerkinElmer Japan G.K.) was added in an amount of 1/20 of the amount of solution filling the medium”.
The 50% ^33PO4-uptake inhibition concentrations (ICs) (UM) in a cell expressing human NaPi-Ilb, human PiT1, and human PiT2 were calculated from a straight line through two points sandwiching 50% inhibition rate. It should be noted that compounds 1 and 2 were not measured for baman PiT1 and human PiT2, which was indicated as “-” in Table 1.

The target of another assay is T3, human PiT2 (Homo sapiens, UniProt Q08357).
T3 construct: expressed in transfected cells; host or cells: CHO cells, transient transfection with Fugene HD
T3 sequence (Q08357 1-652): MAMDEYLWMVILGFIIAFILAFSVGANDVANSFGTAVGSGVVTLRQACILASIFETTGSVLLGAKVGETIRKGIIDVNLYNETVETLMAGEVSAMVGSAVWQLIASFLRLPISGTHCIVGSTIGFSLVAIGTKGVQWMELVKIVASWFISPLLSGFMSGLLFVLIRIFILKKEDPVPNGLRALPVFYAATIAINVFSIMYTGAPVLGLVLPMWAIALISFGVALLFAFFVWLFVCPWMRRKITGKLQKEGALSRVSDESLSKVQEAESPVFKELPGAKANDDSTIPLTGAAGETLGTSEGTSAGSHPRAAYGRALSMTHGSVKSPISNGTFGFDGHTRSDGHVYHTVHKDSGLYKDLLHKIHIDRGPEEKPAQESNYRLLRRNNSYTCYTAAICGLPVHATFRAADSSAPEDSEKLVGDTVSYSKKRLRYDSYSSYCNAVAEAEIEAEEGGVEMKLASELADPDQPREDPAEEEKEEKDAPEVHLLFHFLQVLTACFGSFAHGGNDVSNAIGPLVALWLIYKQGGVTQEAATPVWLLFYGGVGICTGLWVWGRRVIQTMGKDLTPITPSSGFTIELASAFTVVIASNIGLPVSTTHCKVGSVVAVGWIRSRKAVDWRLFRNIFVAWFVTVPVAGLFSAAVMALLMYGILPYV
Briefly: 33PO4 uptake inhibition in CHO cells expressing human PiT2. To be noted: CHO cells transiently expressing human PiT2, pH 6.5. As to the method: as §1

On to `O=C(Nc1ccc(Cl)cc1C(=O)c1cnn(-c2ccc(Cl)c(C(F)(F)F)c2)c1)c1cccc(CN2CCC(N3CCCCC3)CC2)c1` [Compound 3, N-[4-Chloro-2-[1-[4-chloro-3-(trifluoromethyl)phenyl]pyra-zole-4-carbonyl]phenyl]-3-[(4-piperidin-1-ylpiperidin-1-yl)methyl]benzamide], for which the figures for the half-maximal inhibitory concentration (IC50) against human PiT1, against human NaPi-IIb and at human PiT2 were > 30 µM, 3.8 µM and > 30 µM, respectively. Moreover, in assay [1], the inhibition at 30 µM amounted to 100%.
For `O=c1[nH]nc(Sc2ccc(C(F)(F)F)cn2)n1-c1cc(Cl)c(Cl)cc1C(F)(F)F` [Compound 1, 4-[4,5-Dichloro-2-(trifluoromethyl)phenyl]-3-[5-(trifluoromethyl)pyridin-2-yl]sulfanyl-1H-1,2,4-triazol-5-one], the inhibition at 30 µM in assay [1] was found to be 98.2%. At human NaPi-IIb, this molecule gave an IC50 of 7.9 µM.
On the same counts, the results for `C[C@]12CCCN1N(Cc1cccc(Cl)c1F)C(=O)C(C(=O)Nc1cc(F)c(Br)c(F)c1)=C2O` [Compound 2, (4aR)-N-(4-Bromo-3,5-difluorophenyl)-1-[(3-chloro-2-fluorophenyl)methyl]-4-hydroxy-4a-methyl-2-oxo-6,7-dihydro-5H-pyrrolo[1,2-b]pyridazine-3-carboxamide] are 100% and 2.9 µM.
